According to a melting point compilation (Tetko et al.; mined from patent text by program, amines drawn as free bases though some values may be those of a salt):

SMILES | melting point [°C]
O=C(COc1ccc(-c2ccc(F)cc2)cc1)Nc1cscc1C(=O)O | 244 to 251
CS(=O)(=O)OCCNc1ccc(C(F)(F)F)cc1[N+](=O)[O-] | 68 to 70
CCOC(=O)[C@@H]1C[C@H]([N+](=O)[O-])[C@@H](C(=O)O)[C@H](OC(CC)CC)[C@@H]1Sc1ccc(C)cc1 | 135 to 136
CC(CC(C#N)(c1ccccc1)c1ccccn1)N1CCN(C)CC1 (stereo unspecified) | 89 to 90
CCOC(COc1cccc2c1OCCO2)OCC | 73.1
O=C(OCCl)c1c(Cl)cccc1Cl | 70 to 72
CC1(C)CCC2(CC1S(=O)(=O)c1ccccc1)OCCO2 (stereo unspecified) | 113 to 115
CC1SCCCNc2ccccc21 (stereo unspecified) | 72 to 74
NCCc1cc(-c2ccccc2)n(-c2ccc(S(N)(=O)=O)cc2)n1 | 189 to 192
O=C(O)c1cn(-c2ccc(O)cc2)c2c(F)c(F)c(F)cc2c1=O | > 300
N#Cc1cc(N)ccc1N1CCN(C2CCOCC2)CC1 | 162
O=C(Nc1ccc2[nH]c(=O)n(CCCCN3CC=C(c4ccccc4)CC3)c(=O)c2c1)C(F)(F)F | 245
COc1ccccc1C(=O)OCC(=O)c1ccccc1 | 78 to 79
CC(=O)N(Cc1nc(-c2ccccc2)c(-c2ccccc2)o1)c1cccc(OCC(=O)O)c1 | 75 to 80
CS(=O)(=O)c1ccc(CCl)cc1 | 102
O=C1c2c(Cl)c(Cl)c(Cl)c(Cl)c2C(=O)N1c1ccccc1 | 251 to 253
O=C1c2ccccc2C(Nc2ccc(Cl)cc2)N1CCCN1CC=C(c2ccccc2)CC1 (stereo unspecified) | 188
C=C1CCC2(c3c[nH]cn3)Cc3ccccc3C12 (stereo unspecified) | 167 to 174
c1nc(NCCN2CCOCC2)c2sc3nc(N4CCOCC4)c4c(c3c2n1)CCOC4 | 184 to 185
Nc1ccc(SCC2CCC2)cc1[N+](=O)[O-] | 49 to 53
CC1(C)CC(O)CC(C)(C)N1OC(=NC1CCCCC1)NC1CCCCC1 | 157 to 161
CNC(=C[N+](=O)[O-])NCC(O)COc1cccc(CN2CCCCC2)c1 (stereo unspecified) | 45 to 50
CC(C)(C)OC(=O)NC1CCCC1CO (stereo unspecified) | 107 to 108
CCOC(=O)c1nnn(-c2ccccc2)c1N | 124 to 126
CC(=O)NCC1CC1c1c(C2CC2)ccc2nn(C)cc12 (stereo unspecified) | 102 to 103
CC12CCC3C(CC=C4CC(O[Si](C)(C)C)CCC43C)C1CCC2=O (stereo unspecified) | 173 to 174
CCOC1=CC2=CCC3C(CCC4(C)C3CCC4(C)C(C)=O)C2(C)CC1 (stereo unspecified) | 114 to 116
O=C(c1ccc(-c2ncn[nH]2)cc1)N1Cc2cccn2Cc2ccccc21 | 225 to 227

SMILES | melting point [°C]
O=C(Cc1ccccc1N1CCCC1)N1C[C@@H]2SCCC(c3ccccc3)(c3ccccc3)[C@@H]2C1 (racemic) | 166
O=c1[nH]c2nc3ccccc3n2c(=O)n1CCc1ccccc1 | 298
COC(=O)c1ccccc1OCCOc1cccc2ccccc12 | 132 to 137
CCCN1CCC(C(=O)Nc2ccc(CN(C)C3CCOCC3)cc2)=Cc2cc(-c3ccc(N4CCOCC4)cc3)ccc21 | 114 to 118
O=C(NO)c1ccc(-c2c3ccccc3nn2Cc2ccccc2)cc1 | 201 to 203
Fc1ccccc1-c1nc2c(s1)NCCCC2 | 115 to 116
O=C(O)c1ccc(OCCCNc2ccc(NCc3ccc4c(c3)OCCO4)cc2)cc1 | 246 to 247
O=C(c1ncccc1OC1SCC(O)C(O)C1O)N1CCCCC1 (stereo unspecified) | 81 to 92
O=C(C[C@@H](NC(=O)C(F)(F)F)C(=O)O)c1ccc(F)c(F)c1 | 136 to 137
O=C(Cc1cccc(OC(F)(F)F)c1)NCc1cccc2c1C(=O)N(C1CCC(=O)NC1=O)C2=O (stereo unspecified) | 178 to 180
CC(CO)C1CCC2C3CC=C4CC(O)CC(O)C4(C)C3CCC12C (stereo unspecified) | 205 to 207
CC(=O)C=Cc1ccc(Cl)cc1Cl | 79 to 80
C[C@@H](N1CC(=O)N(c2ccc(OCC(F)(F)C(F)F)cc2)CC1=O)[C@@]1(c2ccc(F)cc2F)CO1 | 155 to 156
O=C(O)CCCCCSC1=CCCC1=O | 77.5 to 78
COC(=O)C12CC(C(=O)OC)(C1)C2 | 92
NS(=O)(=O)c1ccc(NC(=O)Nc2ccc(I)cc2)cc1 | 275 to 277
O=Cc1cc(=O)c(OCc2ccccc2)c(C(=O)c2ccc(Cc3ccc(F)cc3)o2)o1 | 69 to 72
O=C1c2cccc(O)c2NC(O)C2CCCN12 (stereo unspecified) | 155 to 157
O=C(O)c1ccc(-c2ccc(OCCCCO)c(-c3ccc(N4CCCC4)c(C(F)(F)F)c3)c2)cc1 | 237
NC(=O)C1=NN(c2cccc(COc3ccccc3)c2)C(c2ccccc2)N1 (stereo unspecified) | 177 to 178
CS(=O)(=O)c1ccc(Cc2n[nH]c3c2c(=O)n(-c2ccccc2)c2ncccc32)cc1 | 312
O=C(O)c1ccccc1Oc1ccc(C(F)(F)F)cc1NS(=O)(=O)c1ccc(C(F)(F)F)cc1 | 175
CCOCC(=O)NC1CCN(C[C@@]23C[C@@H](c4ccccc42)c2ccc(Cl)cc23)CC1 | 68 to 70
COC(=O)/C=C/c1ccc(OC2Cc3ccccc3C2)cc1 | 115 to 116
O=c1cc2c(nn1Cc1ccc(Cl)cc1)-c1ccccc1S(=O)(=O)CC2 | 238 to 239
O=C1CCN(Cc2cccnc2)C(=O)C1=C1SC=CS1 | 132 to 133
CC(=O)Nc1ccc(C#Cc2cnn3c(C(F)(F)F)cc(-c4ccc(C(F)(F)F)cc4)nc23)cn1 | 266

Second part, the compound after the results:

melting point [°C] | SMILES
77 to 83 | O=c1oc2c(c(O)c1C(c1ccccc1)C1CC1)CCCCC2CC1CC1 (stereo unspecified)
151 to 152 | Cc1c(NC(=O)c2ccc(OCc3cccc(F)c3)cc2)ccc2cc(CN3CCCC3)cnc12
79 to 81 | COc1ccc(C2=NN(C(C)C)C(=O)[C@H]3CCCC[C@@H]23)cc1OC (relative stereo)
295 to 296 | CCOC(=O)c1cn(C2CC2)c2c(OC(F)F)c(F)c(F)c(N)c2c1=O
203 to 205 | Cc1nccc2c1ccc(=O)n2C
210 | COc1cc(OC)nc(NC(=O)NS(=O)(=O)Nc2nc(OC)cc(OC)n2)n1
304 to 306 | O=C(O)c1ccc2c(c1)Sc1ccc([N+](=O)[O-])cc1C=C2
136 to 137 | COc1nc(C)nc(NC(=O)NS(=O)(=O)C(C)S(=O)(=O)N2CCCC2)n1 (stereo unspecified)
120 to 121 | COC(=O)/C(=C/CC[C@H](NC(=O)OCc1ccccc1)C(=O)N[C@H](C)C(=O)OC)NC(=O)OC(C)(C)C
145 to 147 | CS(=O)(=O)Nn1c(=O)[nH]c2cc(C(F)(F)F)c(-c3ccc(C#N)cc3)cc2c1=O
119 to 121 | OC(c1nn(-c2c(Cl)cc(C(F)(F)F)cc2Cl)cc1C1CC1(Br)Br)C(F)(F)F (stereo unspecified)
187 | COC(=O)C1=NNC(C)=C(C(=O)OC)C1c1ccccc1 (stereo unspecified)
175 | COc1ccc(CNC(=O)c2cc(C)sc2N)cc1OC
142 to 145 | CCC(C(=O)c1ccc(C(C)C)c(OS(N)(=O)=O)c1C(C)C)c1ccccc1 (stereo unspecified)
145 | COC(=O)NNC(=O)c1cc(OC)c(OC)c(OC)c1
207 to 209 | CC(C)c1c(/C=C/[C@@H]2C[C@@H](O)CC(=O)O2)n(-c2ccc(F)cc2)c(=O)c2ccccc12
109 to 110 | Cc1ccnc(Cl)c1C#N
155 to 157 | Clc1cccc(-c2ccc(Cl)nn2)c1
98 | CC(C)C1C(=O)C(c2ccc(S(C)(=O)=O)cc2)=C1c1ccccc1 (stereo unspecified)
69 to 73 | CCCCc1ccc(NC=C(C#N)C(=O)OCC)nc1
90 to 92 | COc1ccc2c(c1)C(NCc1cc(OC)c(OC)cc1N)CCO2 (stereo unspecified)
132 | Cc1cccc(OCCCN2CCC(OC(c3ccccc3)c3ccccc3)CC2)c1NS(C)(=O)=O
202 to 204 | CC1(CO)Cc2nnc(-c3ccc(-c4ccc(F)cc4)cc3C(F)(F)F)n2CCS1 (stereo unspecified)

melting point [°C] | SMILES
70.3 | CC#CCOc1nsc(-c2ccccc2)n1
174 to 175 | COC(=O)c1[nH]c2c(C)ccc(C)c2c1C=O
252 to 254 | Cc1ncc2cc(-c3ccc(F)cc3)c(N)nc2n1
235 | CC(=O)Nc1ccc(OCC(=O)O)c(C(=O)NCc2ccc(Br)cc2F)c1
178 | Cn1ncnc1COc1nn2c(-c3ccccc3F)nnc2cc1C1CC(F)(F)C1
123 to 124 | COc1nc(OC)c(C(C)C)c(C(C#N)c2cc(C)cc(Br)c2)n1 (stereo unspecified)
168 to 175 | CC1(C)Oc2ccc(C#N)cc2C(N(C(N)=O)c2ccc3c(c2)CN(Cc2ccccc2)C3)C1O (stereo unspecified)
187 | Cc1c(C(=O)O)cnn1-c1ccc(F)c(Cl)c1
48 to 50 | Cc1cc(Br)cc(C=O)c1F
174 to 175 | COC(=O)c1ccc(Nc2ccc(C(=O)OC)cc2)cc1
92 to 93 | COc1cc(CCCCC2OC(=O)NC2=O)ccc1OCc1ccccc1 (stereo unspecified)
308 to 310 | Nc1nc2c(ncn2Cc2ccoc2)c(=O)[nH]1
84 | CCC(C)N(C)C(=O)c1cc(-c2ccccc2)c2ccsc2c1 (stereo unspecified)
142 | CC(C(=O)Cl)c1ccc2c(c1)CCc1ccccc1C2=O (stereo unspecified)
107 to 109 | COC(C#N)Cc1ccc2oc(Cc3nc(-c4ccccc4)oc3C)cc2c1 (stereo unspecified)
87.9 to 90 | COc1cc2c(cc1OCc1ccccc1)CC(C)(C)N=C2C
141 to 142 | CCCOc1c(OC)cc([C@H]2CC[C@H](c3cc(OC)c(OC)c(OC)c3)O2)cc1S(=O)(=O)CCO (relative stereo)
169 to 170 | COc1nc(C)c(N2CCCn3c2nc2c(Cl)ccc(C(OC(F)F)C(F)(F)F)c23)c(C)n1 (stereo unspecified)
125 to 126 | CCOc1cc2c(c3c1OC(C)(C)C3)C(c1ccccc1)=[N+]([O-])C(C)(C)C2
119 | CCc1nn(-c2ccccc2)nc1/C(C#N)=C(\OC(=O)C(C)(C)C)c1c(C)c(C)nn1C
203 to 204 | Cc1c(C(=O)OCc2ccccc2)[nH]c2cc3c(sc4ccccc43)c(C)c12
166 to 168 | COc1nc(NN)c2c(OC)c(OC)cc(Cl)c2n1
197 to 199 | N#Cc1cc([N+](=O)[O-])c(N)cc1F
